Converted amounts (≈) assume the structure as drawn.

The text below walks through data of DBAASP.

Test systems include Candida albicans MDM8; Micrococcus luteus A270; Escherichia coli SBS 363; Enterococcus faecalis; Enterococcus faecium; Enterococcus faecalis VR; Enterococcus faecium VR; Staphylococcus aureus MR; Escherichia coli; Klebsiella pneumoniae; Staphylococcus aureus; Candida albicans; Pseudomonas aeruginosa; Streptococcus pneumoniae; Enterobacter cloacae; Citrobacter sp.
What all share (assay): ≥ marks a high value that may be exact or a test limit, other limits are often not marked, values filed in µg/mL are converted to µM
Test [1] relates to Salmonella enterica subsp. arizonae ATCC 13314.
The test system of test [2] is Pseudomonas aeruginosa ATCC 27853.
Test [3] deals with Staphylococcus aureus KCTC 1621.
Test [4] relates to Staphylococcus epidermidis KCTC 1917.
The subject of test [5] is Escherichia coli KCTC 1682.
Test [6] relates to Salmonella typhimurium KCTC 1926.
The subject of test [7] is Pseudomonas aeruginosa KCTC 1637.
In test [8] the test system is Bacillus subtilis KCTC 3068.
In test [9] the test system is Staphylococcus epidermidis.
In test [10] the test system is Escherichia coli ATCC 25922.
Test [11] has as its system Staphylococcus aureus ATCC 25923.
For test [12], the system named is Escherichia coli BL21(DE3).
Test [13] deals with Candida albicans ATCC 10231.
For test [14], the system named is Escherichia coli BL21 (DE3)-NDM-1.
Test [15] relates to Acinetobacter baumannii ATCC BAA-747.
In test [16] the test system is Pseudomonas aeruginosa ATCC 10145.
Test [17] concerns Acinetobacter baumannii ATCC BAA-1605.
For test [18], the system named is Pseudomonas aeruginosa ATCC 35032.
For test [19], the system named is Pseudomonas aeruginosa 1109.
Test [20] relates to Pseudomonas aeruginosa ATCC 9027.
For test [21], the system named is Pseudomonas aeruginosa ATCC 15442.
In test [22] the test system is Acinetobacter baumannii NR-9667.
Test [23] concerns Pseudomonas aeruginosa ATCC BAA-1744.
The test system of test [24] is Pseudomonas aeruginosa ATCC 9721.
For test [25], the system named is Acinetobacter baumannii NR-13375.
The subject of test [26] is Acinetobacter baumannii ATCC 19606.
In test [27] the test system is Pseudomonas aeruginosa 1125.
Test [28] has as its system Pseudomonas aeruginosa ATCC 25619.
In test [29] the test system is Acinetobacter baumannii ATCC 15308.

As to `CC[C@H](C)[C@H](NC(=O)[C@H](CC(C)C)NC(=O)[C@H](CO)NC(=O)[C@H](CC(C)C)NC(=O)[C@H](CC(C)C)NC(=O)[C@@H](N)CO)C(=O)N[C@@H](CCCN=C(N)N)C(=O)N[C@@H](CC(C)C)C(=O)N[C@@H](CC(C)C)C(=O)N[C@H](C(=O)N[C@H](C(N)=O)[C@@H](C)O)[C@@H](C)CC` [SLLSLIRLLIT], the MIC in test [1] is ≥ 50 µM; in the test with Candida albicans MDM8, 12.5 µM (≈ 15.5 µg/mL); with Micrococcus luteus A270, 12.5 µM (≈ 15.5 µg/mL); in the test with Escherichia coli SBS 363 it was 12.5 µM (≈ 15.5 µg/mL); in test [2] it was 1.6 µM (≈ 1.98 µg/mL).

`CC[C@H](C)[C@H](NC(=O)[C@H](CS)NC(=O)[C@H](Cc1cnc[nH]1)NC(=O)[C@H](C)NC(=O)[C@H](C)N)C(=O)N[C@H](C(=O)N[C@@H](CC(C)C)C(=O)N[C@@H](Cc1cnc[nH]1)C(=O)N[C@@H](Cc1cnc[nH]1)C(=O)N[C@@H](CC(N)=O)C(N)=O)C(C)C` [AAHCIVLHHN]: the minimum inhibitory concentration (MIC) against Enterococcus faecalis amounted to 30 µM (≈ 33.4 µg/mL); in [3], 30 µM (≈ 33.4 µg/mL); against Enterococcus faecium, 30 µM (≈ 33.4 µg/mL); in [4], 15 µM (≈ 16.7 µg/mL); against Enterococcus faecalis VR, 30 µM (≈ 33.4 µg/mL); in test [5], 30 µM (≈ 33.4 µg/mL). Moreover, the minimum inhibitory concentration (MIC) in [6] was 30 µM (≈ 33.4 µg/mL); in [7], 15 µM (≈ 16.7 µg/mL); in [8], 15 µM (≈ 16.7 µg/mL); against Enterococcus faecium VR, 30 µM (≈ 33.4 µg/mL); with Staphylococcus aureus MR it was 30 µM (≈ 33.4 µg/mL).

Turning to `CC(C)C[C@H](NC(=O)[C@H](CCCCN)NC(=O)[C@H](CCCN=C(N)N)NC(=O)[C@H](Cc1ccccc1)NC(=O)[C@H](Cc1ccccc1)NC(=O)[C@H](CCCCN)NC(=O)[C@H](CCCN=C(N)N)NC(=O)[C@H](CC(C)C)NC(=O)[C@H](CC(C)C)NC(=O)[C@@H](N)CCCN=C(N)N)C(=O)N[C@@H](CCCCN)C(=O)N[C@@H](CCCCN)C(=O)N[C@@H](CO)C(=O)N[C@H](C(=O)O)C(C)C` [RLLRKFFRKLKKSV], the MIC in test [9] was 17.6 µM (≈ 32 µg/mL); in test [10], 17.6 µM (≈ 32 µg/mL); against Escherichia coli, 17.6 µM (≈ 32 µg/mL); in [11] it was 35.2 µM (≈ 64 µg/mL); in test [12] it was 8.79 µM (≈ 16 µg/mL); in test [13] it was 35.2 µM (≈ 64 µg/mL). The MIC against Klebsiella pneumoniae came to 17.6 µM (≈ 32 µg/mL); against Staphylococcus aureus, 17.6 µM (≈ 32 µg/mL); in test [14], 4.4 µM (≈ 8 µg/mL); against Candida albicans it was 35.2 µM (≈ 64 µg/mL); in test [2], 8.79 µM (≈ 16 µg/mL); against Pseudomonas aeruginosa, 17.6 µM (≈ 32 µg/mL).

As for `CC[C@H](C)[C@H](NC(=O)[C@H](Cc1c[nH]c2ccccc12)NC(=O)[C@H](CCCCN)NC(=O)[C@H](CCCCN)NC(=O)[C@@H](NC(=O)[C@H](CCCN=C(N)N)NC(=O)[C@H](CCCN=C(N)N)NC(=O)[C@@H](NC(=O)[C@@H](N)Cc1c[nH]c2ccccc12)[C@@H](C)CC)[C@@H](C)CC)C(=O)N[C@@H](CCCN=C(N)N)C(=O)N[C@@H](CCCN=C(N)N)C(=O)N[C@H](C(=O)N[C@@H](Cc1cnc[nH]1)C(=O)N[C@@H](CCCCN)C(=O)O)C(C)C` [WIRRIKKWIRRVHK], the minimum inhibitory concentration (MIC) was 4 µM (≈ 7.9 µg/mL) in test [15]; 8 µM (≈ 15.8 µg/mL) in test [16]; 4 µM (≈ 7.9 µg/mL) in [17]; 16 µM (≈ 31.6 µg/mL) in test [18]; 16 µM (≈ 31.6 µg/mL) in [19]; 4 µM (≈ 7.9 µg/mL) in [20]. In addition, the MIC in test [21] stood at 16 µM (≈ 31.6 µg/mL); in test [22], 4 µM (≈ 7.9 µg/mL); in test [23], 16 µM (≈ 31.6 µg/mL); in test [24], 8 µM (≈ 15.8 µg/mL); in test [25], 2 µM (≈ 3.95 µg/mL); in test [26], 2 µM (≈ 3.95 µg/mL). For the same molecule, the MIC in test [27] is ≥ 32 µM; in [2], 8 µM (≈ 15.8 µg/mL); in test [28] it was 8 µM (≈ 15.8 µg/mL).

As for `CC[C@H](C)[C@H](NC(=O)[C@H](CCSC)NC(=O)[C@H](C)NC(=O)[C@@H]1CCCN1C(=O)[C@@H](NC(=O)[C@@H](NC(=O)[C@H](CCCCN)NC(=O)[C@@H](NC(=O)[C@H](CC(C)C)NC(=O)CNC(=O)CNC(=O)[C@H](CC(C)C)NC(=O)[C@@H](N)Cc1ccccc1)[C@@H](C)CC)[C@@H](C)CC)C(C)C)C(=O)N[C@H]1CSSC[C@@H](C(=O)O)NC(=O)[C@H](CCCCN)NC(=O)[C@H](CCCCN)NC(=O)[C@H](CCCN=C(N)N)NC(=O)[C@H](C(C)C)NC(=O)[C@H](C)NC1=O` [FLGGLIKIVPAMICAVRKKC], the MIC in [10] was 116 µM (≈ 250 µg/mL); in [21] it was ≥ 116 µM; in the test on Streptococcus pneumoniae, ≥ 116 µM; in test [11], 57.8 µM (≈ 125 µg/mL); in test [29] it was ≥ 116 µM; against Enterobacter cloacae, ≥ 116 µM. Moreover, the MIC in the test on Klebsiella pneumoniae was > 116 µM; with Citrobacter sp., ≥ 116 µM; against Staphylococcus aureus, 116 µM (≈ 250 µg/mL).
